The values that follow come from patent US20110028345A1, “METHODS TO CHARACTERIZE CELL REPROGRAMMING AND USES THEREOF” (CORNING INCORPORATED, priority 2009, published 2011).

The subject of assay [1] is differentiated ReNcell cells (endogenous dopamine receptors). Put plainly: Epic RWG biosensor DMR assay on the neuronal cell system differentiated from ReNcell VM. The note with it: for DMR signal upon stimulation: differentiated ReNcell cells, PD128907 and A68930 16 micromolar, dopamine 128 micromolar (FIG. 7A-C); for receptor to which the DMR signal is attributed: same doses as FIG. 7A-C. It counts as cell-based, human. The protocol:
For cell assay on Epic, undifferentiated cells were typically seeded using ˜3×10^3 cells per well in 50 μl of the corresponding culture medium in the biosensor microplate freshly coated with laminin, and were cultured at 37° C. under air/5% CO2. […] The medium was replaced with fresh ReNcell NSC Maintenance Medium every 2-3 days for 10 days. The confluency for all cells at the time of assays was ˜95% to 100%.
(§1) For biosensor cellular assays, compound solutions were made by diluting the stored concentrated solutions with the HBSS (1× Hanks balanced salt solution, plus 20 mM Hepes, pH 7.1), and transferred into a 384 well polypropylene compound storage plate to prepare a compound source plate. […] Afterwards, a 2 to 10 min continuous recording was carried out to establish a baseline, and to ensure that the cells reached a steady state.

For assay [2], the system named is ReNcell progenitor cells. The conditions noted are these: 128 micromolar. The method, then: Afterwards, a 2 to 10 min continuous recording was carried out to establish a baseline, and to ensure that the cells reached a steady state. Cellular responses were then triggered by transferring 10 μl of the compound solutions into the cell assay plate using the on-board liquid handler.
Epic® wavelength interrogation system (Corning Inc., Corning, N.Y.) was used for whole cell sensing. This system consists of a temperature-control unit, an optical detection unit, and an on-board liquid handling unit with robotics. The detection unit is centered on integrated fiber optics, and enables kinetic measures of cellular responses with a time interval of ˜15 sec. The compound solutions were introduced by using the on-board liquid handling unit (i.e., pippetting).
For biosensor cellular assays, compound solutions were made by diluting the stored concentrated solutions with the HBSS (1× Hanks balanced salt solution, plus 20 mM Hepes, pH 7.1), and transferred into a 384 well polypropylene compound storage plate to prepare a compound source plate. Two compound source plates were made separately when a two-step assay was performed. […] Both the cell assay plate and the compound source plate(s) were then incubated in the hotel of the reader system. After incubation the baseline wavelengths of all biosensors in the cell assay microplate were recorded and normalized to zero. […]

Assay [3] relates to undifferentiated and differentiated ReN cells. The experiment in a line: DMR marker panel profiling, differentiated versus undifferentiated ReN cells. The assay is classed as cell-based, human. The conditions noted are these: markers at 10 μM (dopamine and glucagons like peptide 128 μM); FIG. 9-11. The method, then: The confluency for all cells at the time of assays was ˜95% to 100%.
as §1

Assay [4] has as its system A549 cell. Put plainly: Modulation of marker-induced biosensor (DMR) responses in A549 cell. It counts as cell-based. From the text:
(§2) A “modulation profile” or like terms is the comparison between a secondary profile of the marker in the presence of a molecule and the primary profile of the marker in the absence of any molecule. The comparison can be by, for example, subtracting the primary profile from secondary profile or subtracting the secondary profile from the primary profile or normalizing the secondary profile against the primary profile.
(§3) A “molecule modulation index” or like terms is an index to display the ability of the molecule to modulate the biosensor output signals of the panels of markers acting on the panel of cells. The modulation index is generated by normalizing a specific biosensor output signal parameter of a response of a cell upon stimulation with a marker in the presence of a molecule against that in the absence of any molecule.
(§4) Alternatively, different scores can be given for a type of modulation but with different scales. For example, a positive modulation of 10%, 20%, 30%, 40%, 50%, 60%, 100%, 200%, etc, can be given a score of +1, +2, +3, +4, +5, +6, +10, +20, correspondingly. Conversely, for negative modulation, similar but in opposite score can be given. […] Thus, the score of HA1077 modulation index in coordination can be assigned as (0, 0.5, −0.6, 0, −2.3, 0.6, 0, −6.8, 0.4, −3.6, −0.5, −1.6). Once a molecular index is generated, the molecular index can be compared with a library of known modulators to determine the mode(s) of action of the molecule of interest. […] Beside its indicative power of a DMR index for pharmacology of a molecule, a molecule DMR index can also be used to distinguish the cellular background of different types of cells.

Assay [5] concerns quiescent A431 cells. Put plainly: Modulation of marker-induced biosensor (DMR) responses in quiescent A431 cells. The assay is classed as cell-based.
Source text: as §2, §3, §4

Ends that are not written are not given here.

Regarding `NC[C@@H]1O[C@H](c2ccccc2)Cc2c1ccc(O)c2O` [A68930], the “DMR signal upon stimulation” value in assay [1] was “small but reproducible DMR signal”. Besides, in assay [1] (differentiated cells), the “receptor to which the DMR signal is attributed” value was “triggered a DMR signal specifically to the endogenous D1 receptor”.
On the same counts, the results for `CCCN1CCO[C@@H]2c3cc(O)ccc3OC[C@H]21` [PD128907] are “small but reproducible DMR signal” and “activated another endogenous dopamine receptor (possibly D2 receptor)”.
With `NCCc1ccc(O)c(O)c1` [dopamine], the “DMR signal 10 days after differentiation and maturation” value in assay [1] (128 micromolar, 10 days after differentiation (FIG. 8D)) was “distinct DMR signal which contains additional contributions from endogenous D1 receptors”. Moreover, the “dose dependence of the DMR signal” value in assay [1] (amplitudes 50 min after stimulation as a function of concentration (FIG. 7D)) is given as “biphasic dose-dependent DMR signal”. The “DMR signal upon stimulation” value in assay [1] is reported as “small but reproducible DMR signal”. In assay [1] (differentiated cells, high doses), the “DMR signal at high doses” value was “close to the simple sum of both A68390 and PD129807 DMR signals”. Moreover, the “DMR signal at low doses” value in assay [1] (differentiated cells, low doses (<4000 nM)) is recorded as “DMR signal similar to that induced by A68390”. The “receptor to which the DMR signal is attributed” value in assay [1] (differentiated cells) was “can activate both D1 and D2 receptors”. Also, in assay [2] (3 hr after attachment on laminin coated biosensor surface (FIG. 8B)), the “DMR signal 3 hr after attachment” value was “small but reproduced DMR signal”. Further, the “DMR signal after 4 days undifferentiated culture” value in assay [2] (4 days in growth factor rich medium (FIG. 8C)) is “distinct DMR signal (FIG. 8C), which was confirmed to be due to the activation of the endogenous D2 receptor”. The “specificity of the marker DMR signal for the differentiation state” value in assay [3] was “non-specific to both the undifferentiated and differentiated ReN cells”.
With `N#CC(C#N)=C(N)/C(C#N)=C/c1cc(O)c(O)c(O)c1` [tyrphostin 51], the “modulation of the biosensor response induced by PMA” value in assay [4] (marker PMA) is listed as −6%. In assay [4] (marker SLIGKV-amide), the “modulation of the biosensor response induced by SLIGKV-amide” value turned out to be 0%. Besides, the “modulation of the biosensor response induced by forskolin” value in assay [4] (marker forskolin) is −23%. Moreover, in assay [4] (marker histamine, early response), the “modulation of the histamine early response” value is given as “+6%”. Moreover, the “modulation of the histamine late response” value in assay [4] (marker histamine, late response) is recorded as 0%. For the same compound, the “modulation of the biosensor response induced by pinacidil” value in assay [4] (marker pinacidil) was 0%. Moreover, the “modulation of the biosensor response induced by poly (I:C)” value in assay [4] (marker poly (I:C)) is given as “+5%”. Moreover, the “mode of action concluded from the biosensor index” value in assay [5] (EGFR inhibitor (EGF DMR in A431) and PDE4 inhibitor (epinephrine, histamine in A431; forskolin in A549)) is on record as “displays polypharmacology”. Besides, in assay [5] (quiescent A431 cells, marker EGF, N-DMR), the “modulation of the EGF N-DMR” value was −5%. The “modulation of the EGF P-DMR” value in assay [5] (quiescent A431 cells, marker EGF, P-DMR) is −36%. In addition, the “modulation of the biosensor response induced by epinephrine” value in assay [5] (quiescent A431 cells, marker epinephrine) is given as −68%. Further, the “modulation of the biosensor response induced by histamine” value in assay [5] (quiescent A431 cells, marker histamine) is reported as −16%. Further, the “modulation of the biosensor response induced by nicotinic acid” value in assay [5] (quiescent A431 cells, marker nicotinic acid) is listed as “+4%”.
For the compound “substance P (RPKPQQFFGLM; ends and bridges not checked; UniProt P20366 58-68, looked up) [NKA receptor agonist]”, the “specificity of the marker DMR signal for the differentiation state” value in assay [3] is “specific to the undifferentiated cells”.
Same read-out and setting: the value for “vasoactive intestinal peptide (HSDAVFTDNYTRLRKQMAVKKYLNSILN; ends and bridges not checked; UniProt P01282 125-152, looked up) [VIP receptor agonist]” was “specific to the differentiated ReN cells”.
